From ChEMBL document CHEMBL1201862, “PubChem BioAssay data set” (2004)
Where “and” joins values, the source holds several entries; their conditions need not be identical. Equal entries are not always repeated. Calls of active or inactive are those of the source.

Key:
[1] = target: T1, Orexin/Hypocretin receptor type 1 (Homo sapiens, UniProt O43613); assay: (§1) Fluorescence-based cell-based high throughput dose response assay for antagonists of the orexin 1 receptor (OX1R; HCRTR1). [Related pubchem assays (depositor defined):AID434989, AID435008, AID463079, AID485270, AID492963, AID492964, AID492965, AID493232, AID504717, AID504718]; type: functional
T1 sequence (O43613 whole entry): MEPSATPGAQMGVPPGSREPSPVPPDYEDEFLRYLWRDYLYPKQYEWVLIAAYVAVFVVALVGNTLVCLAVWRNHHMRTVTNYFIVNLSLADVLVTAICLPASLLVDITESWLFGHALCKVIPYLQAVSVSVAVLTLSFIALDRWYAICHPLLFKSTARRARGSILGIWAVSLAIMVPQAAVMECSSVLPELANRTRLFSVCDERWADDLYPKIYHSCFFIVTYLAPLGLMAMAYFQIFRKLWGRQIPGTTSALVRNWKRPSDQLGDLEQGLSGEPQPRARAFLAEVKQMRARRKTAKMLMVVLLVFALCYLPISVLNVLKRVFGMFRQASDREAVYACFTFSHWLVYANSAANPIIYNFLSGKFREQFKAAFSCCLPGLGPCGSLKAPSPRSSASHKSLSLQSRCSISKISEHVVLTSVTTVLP

Orexin receptor type 2 [2] = target: T2, Orexin receptor type 2 (Homo sapiens, UniProt O43614); assay: Counterscreen assay for antagonists of the orexin 1 receptor (OX1R; HCRTR1): Fluorescence-based cell-based dose response assay for antagonists of the orexin 2 receptor (OX2R; HCRTR2), run by assay provider.; type: functional
T2 sequence (O43614 whole entry): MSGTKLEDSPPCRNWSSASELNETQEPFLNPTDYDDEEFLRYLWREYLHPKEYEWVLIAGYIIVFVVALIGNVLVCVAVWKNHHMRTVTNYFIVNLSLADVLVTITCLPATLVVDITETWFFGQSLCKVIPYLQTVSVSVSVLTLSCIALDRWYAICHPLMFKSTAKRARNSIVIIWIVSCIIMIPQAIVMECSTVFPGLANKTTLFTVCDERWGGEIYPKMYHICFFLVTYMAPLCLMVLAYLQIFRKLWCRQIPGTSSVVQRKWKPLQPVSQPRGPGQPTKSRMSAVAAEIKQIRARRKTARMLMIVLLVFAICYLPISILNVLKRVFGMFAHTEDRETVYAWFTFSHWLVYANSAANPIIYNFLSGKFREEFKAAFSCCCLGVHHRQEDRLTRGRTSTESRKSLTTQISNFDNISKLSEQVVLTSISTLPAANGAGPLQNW

[3] = (§2) Counterscreen for antagonists of the orexin 1 receptor (OX1R; HCRTR1): Fluorescence-based cell-based high throughput dose response assay to identify antagonists of the parental CHO cell line. [Related pubchem assays (depositor defined):AID434989, AID435008, AID463079, AID485270, AID492963, AID492964, AID492965, AID493232, AID504699, AID504701]; type: functional
[4] = target: T1, Orexin/Hypocretin receptor type 1; assay: as §1, with “Homogeneous Time Resolved Fluorescence (HTRF)-based” for “Fluorescence-based”; type: functional
CHO-K1 = assay: as §2, with “Homogeneous time resolved fluorescence (HTRF)-based” for “Fluorescence-based”, “cell-based” for “cell-based high throughput”, “CHO-K1” for “CHO”; type: functional; details: Cricetulus griseus;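 note: potency for inhibition of ATP-stimulated IP1 production as antagonists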
Orexin receptor type 2 [5] = target: T2, Orexin receptor type 2; assay: Counterscreen assay for antagonists of the orexin 1 receptor (OX1R; HCRTR1): Homogeneous Time Resolved Fluorescence (HTRF)-based cell-based dose response assay for antagonists of the orexin 2 receptor (OX2R; HCRTR2), run by assay provider.; type: functional
[6] = HepG2 cell cytotoxicity, dose response, cytotoxicity control for non-replicating M. tuberculosis project (AID 489018); type: functional; details: Mycobacterium tuberculosis
[7] = microbe, parasite or virus in culture; type: functional; details: Mycobacterium tuberculosis
[8] = Vero E6 cell cytotoxicity, dose response, cytotoxicity control for non-replicating M. tuberculosis project, secondary assay (AID 492998); type: functional, VeroE6; details: Vero C1008
[9] = target: C-C chemokine receptor type 6 (Homo sapiens, UniProt P51684); assay: antagonism of CCR6 beta-arrestin recruitment – cell-based, luminescent beta-arrestin readout, dose response (AID 504728); type: functional
Sequence of C-C chemokine receptor type 6 (P51684 whole entry): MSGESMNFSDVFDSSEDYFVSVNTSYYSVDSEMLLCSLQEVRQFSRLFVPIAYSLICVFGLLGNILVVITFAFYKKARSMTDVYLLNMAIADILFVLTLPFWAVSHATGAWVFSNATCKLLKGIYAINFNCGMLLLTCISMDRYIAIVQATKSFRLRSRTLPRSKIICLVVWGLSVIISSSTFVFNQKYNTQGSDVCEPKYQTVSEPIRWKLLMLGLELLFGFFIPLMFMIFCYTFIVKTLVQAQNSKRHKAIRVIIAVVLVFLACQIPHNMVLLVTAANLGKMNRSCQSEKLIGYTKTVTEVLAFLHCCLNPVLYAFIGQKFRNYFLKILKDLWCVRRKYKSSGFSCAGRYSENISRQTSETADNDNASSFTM

Streptococcus = assay: GAS UMAA2166 growth inhibition – luminescence, BacTiterGlo, counter-screen for streptokinase expression inhibitor project, dose response (AID 1915); type: functional, organism-based;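 note: potency for reduction of bacterial viability or growth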
[10] = THP-1 cell cytotoxicity, dose response, cytotoxicity control for non-replicating M. tuberculosis project (AID 489025); type: functional
Beta-galactosidase = Beta-galactosidase (Escherichia coli, UniProt Q8VNN2); assay: detection-enzyme interference by beta-gal modulators – biochemical, E. coli enzyme, set 3, artefact control for CCR6 antagonist project, dose response (AID 504712); type: functional
Sequence of Beta-galactosidase (Q8VNN2 whole entry): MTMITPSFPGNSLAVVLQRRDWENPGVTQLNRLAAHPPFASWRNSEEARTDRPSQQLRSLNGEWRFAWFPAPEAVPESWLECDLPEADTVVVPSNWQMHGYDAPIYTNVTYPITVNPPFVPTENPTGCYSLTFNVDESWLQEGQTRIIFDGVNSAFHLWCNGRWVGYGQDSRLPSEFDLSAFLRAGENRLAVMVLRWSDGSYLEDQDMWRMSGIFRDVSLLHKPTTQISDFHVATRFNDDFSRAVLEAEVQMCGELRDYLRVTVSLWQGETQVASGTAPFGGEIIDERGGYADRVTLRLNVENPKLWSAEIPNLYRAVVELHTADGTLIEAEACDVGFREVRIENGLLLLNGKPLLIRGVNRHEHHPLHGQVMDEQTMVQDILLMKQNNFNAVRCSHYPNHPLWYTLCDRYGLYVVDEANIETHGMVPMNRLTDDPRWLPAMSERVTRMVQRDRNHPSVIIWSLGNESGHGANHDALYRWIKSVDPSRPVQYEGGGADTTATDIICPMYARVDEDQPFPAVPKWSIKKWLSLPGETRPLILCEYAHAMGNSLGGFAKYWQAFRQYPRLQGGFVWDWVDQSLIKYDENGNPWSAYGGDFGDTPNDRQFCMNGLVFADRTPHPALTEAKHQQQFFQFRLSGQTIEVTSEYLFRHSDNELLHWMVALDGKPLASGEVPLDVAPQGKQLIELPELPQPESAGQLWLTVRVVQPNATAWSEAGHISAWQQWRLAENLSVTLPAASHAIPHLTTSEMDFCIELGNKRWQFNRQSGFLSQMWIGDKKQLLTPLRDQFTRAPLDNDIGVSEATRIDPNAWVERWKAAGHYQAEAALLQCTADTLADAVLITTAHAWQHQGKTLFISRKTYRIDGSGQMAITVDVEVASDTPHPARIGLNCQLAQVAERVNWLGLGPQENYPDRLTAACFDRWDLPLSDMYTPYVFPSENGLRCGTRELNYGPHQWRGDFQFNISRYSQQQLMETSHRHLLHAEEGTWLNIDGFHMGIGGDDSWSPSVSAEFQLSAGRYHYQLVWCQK

[11] = Vero cell cytotoxicity, cytotoxicity control for M. tuberculosis inhibitor project, purified and synthesized samples, set 3 (AID 504684); type: functional
cells = type: functional
[12] = test system: Streptococcus sp. 'group A'; assay: Streptococcus pyogenes SK(-)GAS viability under kanamycin – luminescence, BacTiterGlo, confirmation, counter-screen for streptokinase expression inhibitor project, dose response (AID 1900); type: functional, organism-based
Streptokinase A = target: T3, Streptokinase A (Streptococcus pyogenes serotype M1, UniProt P10520); assay: viability-normalized secreted streptokinase activity reduction – plasminogen activation absorbance, OD405, dose response (AID 1914); type: functional, Streptococcus pyogenes M1 GAS;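 note: secreted streptokinase activity via plasminogen activation per viability signal from cell pellet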
T3 sequence (P10520 whole entry): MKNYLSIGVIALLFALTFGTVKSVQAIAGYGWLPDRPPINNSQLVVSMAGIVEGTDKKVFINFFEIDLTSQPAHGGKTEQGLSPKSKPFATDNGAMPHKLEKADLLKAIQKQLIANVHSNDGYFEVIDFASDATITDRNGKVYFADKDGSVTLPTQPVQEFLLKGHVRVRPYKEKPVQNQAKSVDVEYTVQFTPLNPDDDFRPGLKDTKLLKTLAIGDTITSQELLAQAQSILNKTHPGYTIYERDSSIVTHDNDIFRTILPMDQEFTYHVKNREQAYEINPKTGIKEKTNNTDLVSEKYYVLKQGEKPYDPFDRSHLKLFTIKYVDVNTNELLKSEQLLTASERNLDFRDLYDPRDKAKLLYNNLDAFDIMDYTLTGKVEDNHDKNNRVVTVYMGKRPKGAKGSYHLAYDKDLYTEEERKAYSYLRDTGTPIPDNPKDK

[13] = A Cell Based Secondary Assay to Explore Cytotoxicity in HepG2 Cells of Compounds that Modulate Mycobacterium tuberculosis in Media Containing Glycerol versus Media without Glycerol (2).; type: functional
[14] = A Cell Based Secondary Assay to Explore Cytotoxicity in THP-1 Cells of Compounds that Modulate Mycobacterium tuberculosis in Media Containing Glycerol versus Media without Glycerol (2).; type: functional
[15] = target: Botulinum neurotoxin type A (Clostridium botulinum (strain Hall / ATCC 3502 / NCTC 13319 / Type A), UniProt P0DPI1); assay: High-throughput multiplex microsphere dose response for inhibitors of toxin protease, specifically Botulinum neurotoxin light chain A protease, compounds from Cherry Pick 01.; type: functional; details: read-out: EC50_MICROM
Sequence of Botulinum neurotoxin type A (P0DPI1 2-448 limits assumed): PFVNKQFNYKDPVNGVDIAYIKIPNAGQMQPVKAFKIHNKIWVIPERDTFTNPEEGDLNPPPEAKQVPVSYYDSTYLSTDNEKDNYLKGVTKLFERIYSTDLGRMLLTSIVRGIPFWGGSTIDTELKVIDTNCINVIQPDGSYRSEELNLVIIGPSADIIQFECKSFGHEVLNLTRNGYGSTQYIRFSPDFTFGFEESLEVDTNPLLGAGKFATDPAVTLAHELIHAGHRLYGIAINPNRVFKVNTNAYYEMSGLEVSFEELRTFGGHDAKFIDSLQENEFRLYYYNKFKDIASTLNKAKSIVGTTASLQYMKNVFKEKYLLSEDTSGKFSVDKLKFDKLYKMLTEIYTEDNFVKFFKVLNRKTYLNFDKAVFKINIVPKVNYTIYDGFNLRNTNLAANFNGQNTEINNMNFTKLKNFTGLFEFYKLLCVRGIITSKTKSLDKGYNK

[16] = target: T4, Heat shock factor protein 1 (Mus musculus, UniProt P38532); assay: enhancement of HSF1-driven luciferase signal – cell-based, NIH3T3, luminescence, dose retest, confirmation (AID 435004); type: functional;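 note: stress induced by proteasome inhibitor MG132 added 30 min after compound; luciferase reporter driven by HSF1 response element in NIH3T3 cells; actives raise luminescence as potentiators of the MG132 stress response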
T4 sequence (P38532 whole entry): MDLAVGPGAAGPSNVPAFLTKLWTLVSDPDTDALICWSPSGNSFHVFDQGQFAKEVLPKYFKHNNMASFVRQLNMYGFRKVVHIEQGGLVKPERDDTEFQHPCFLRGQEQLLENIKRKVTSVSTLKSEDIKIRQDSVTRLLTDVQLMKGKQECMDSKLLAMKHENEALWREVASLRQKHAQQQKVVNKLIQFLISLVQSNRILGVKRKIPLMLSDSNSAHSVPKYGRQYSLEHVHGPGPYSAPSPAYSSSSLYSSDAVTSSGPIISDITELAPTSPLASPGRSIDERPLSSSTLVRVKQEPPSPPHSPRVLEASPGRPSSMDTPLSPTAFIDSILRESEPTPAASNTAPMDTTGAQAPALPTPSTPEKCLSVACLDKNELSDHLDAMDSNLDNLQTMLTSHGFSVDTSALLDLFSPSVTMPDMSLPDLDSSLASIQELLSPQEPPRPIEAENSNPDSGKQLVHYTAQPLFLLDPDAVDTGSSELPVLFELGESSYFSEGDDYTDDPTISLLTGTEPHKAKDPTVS

Phospholipase D1 = Phospholipase D1 (Homo sapiens, UniProt Q13393); assay: cellular phospholipase D1 inhibition IC50 – cell-based, dose response (AID 602151); type: functional;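 note: cellular PLD1 assay in Calu-1 cells stimulated with PMA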
Sequence of Phospholipase D1 (Q13393 whole entry): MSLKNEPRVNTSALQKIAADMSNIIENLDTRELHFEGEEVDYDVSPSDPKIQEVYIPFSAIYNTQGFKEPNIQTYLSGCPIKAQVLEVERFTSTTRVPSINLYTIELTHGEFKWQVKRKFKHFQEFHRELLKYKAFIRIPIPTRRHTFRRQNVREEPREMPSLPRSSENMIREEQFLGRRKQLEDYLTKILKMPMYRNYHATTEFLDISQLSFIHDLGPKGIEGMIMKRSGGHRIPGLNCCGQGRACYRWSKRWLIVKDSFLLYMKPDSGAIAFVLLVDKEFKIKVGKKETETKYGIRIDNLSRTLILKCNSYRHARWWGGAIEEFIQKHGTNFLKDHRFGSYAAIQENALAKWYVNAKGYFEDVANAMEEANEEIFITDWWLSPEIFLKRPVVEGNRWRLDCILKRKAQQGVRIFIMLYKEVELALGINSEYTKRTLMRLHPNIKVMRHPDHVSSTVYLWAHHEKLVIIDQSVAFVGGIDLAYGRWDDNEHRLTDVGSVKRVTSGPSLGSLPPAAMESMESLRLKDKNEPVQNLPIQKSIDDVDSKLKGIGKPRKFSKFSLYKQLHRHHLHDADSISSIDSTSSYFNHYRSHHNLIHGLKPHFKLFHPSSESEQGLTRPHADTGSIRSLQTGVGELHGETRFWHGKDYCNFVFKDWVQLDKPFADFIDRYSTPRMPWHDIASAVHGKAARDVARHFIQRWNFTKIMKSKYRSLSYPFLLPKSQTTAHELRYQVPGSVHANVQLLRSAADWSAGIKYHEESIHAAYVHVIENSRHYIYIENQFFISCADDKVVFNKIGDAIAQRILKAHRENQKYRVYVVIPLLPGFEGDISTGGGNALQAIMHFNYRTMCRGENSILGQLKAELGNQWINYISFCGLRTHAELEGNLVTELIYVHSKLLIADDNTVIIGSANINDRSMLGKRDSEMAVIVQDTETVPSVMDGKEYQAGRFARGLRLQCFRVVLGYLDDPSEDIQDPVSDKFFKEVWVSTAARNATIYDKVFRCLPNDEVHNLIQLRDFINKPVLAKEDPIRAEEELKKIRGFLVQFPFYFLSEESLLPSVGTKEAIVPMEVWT

Phospholipase D2 = Phospholipase D2 (Homo sapiens, UniProt O14939); assay: cellular phospholipase D2 inhibition IC50 – cell-based, dose response (AID 602147); type: functional;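 note: cellular assay in HEK293 cells overexpressing GFP-tagged PLD2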
Sequence of Phospholipase D2 (O14939 whole entry): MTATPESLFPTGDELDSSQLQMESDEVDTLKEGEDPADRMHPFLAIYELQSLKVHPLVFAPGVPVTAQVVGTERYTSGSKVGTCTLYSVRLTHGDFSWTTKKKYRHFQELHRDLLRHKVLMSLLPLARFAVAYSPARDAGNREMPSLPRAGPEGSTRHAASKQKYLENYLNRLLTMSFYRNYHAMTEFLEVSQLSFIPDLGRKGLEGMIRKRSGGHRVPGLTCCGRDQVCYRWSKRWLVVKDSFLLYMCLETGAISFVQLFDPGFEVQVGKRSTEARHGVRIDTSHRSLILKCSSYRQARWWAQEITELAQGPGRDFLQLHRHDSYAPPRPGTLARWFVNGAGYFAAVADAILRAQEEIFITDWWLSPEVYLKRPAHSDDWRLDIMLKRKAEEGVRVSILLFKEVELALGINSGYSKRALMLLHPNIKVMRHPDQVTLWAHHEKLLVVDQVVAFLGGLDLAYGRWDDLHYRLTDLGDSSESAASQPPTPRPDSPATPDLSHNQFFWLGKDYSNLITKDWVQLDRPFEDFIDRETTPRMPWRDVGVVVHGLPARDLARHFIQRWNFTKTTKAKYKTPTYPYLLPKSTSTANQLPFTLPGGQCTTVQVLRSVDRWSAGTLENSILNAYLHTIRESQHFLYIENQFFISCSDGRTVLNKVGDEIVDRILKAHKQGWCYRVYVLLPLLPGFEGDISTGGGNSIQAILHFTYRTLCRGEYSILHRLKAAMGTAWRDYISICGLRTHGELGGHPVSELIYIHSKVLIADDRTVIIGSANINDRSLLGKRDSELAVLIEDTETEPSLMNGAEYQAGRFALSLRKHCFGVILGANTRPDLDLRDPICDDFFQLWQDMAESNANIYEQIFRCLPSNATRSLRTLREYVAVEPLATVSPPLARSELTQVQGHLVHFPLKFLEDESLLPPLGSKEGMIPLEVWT

With N#CCSc1nc(-c2ccccc2)nc2ccccc12 the IC50 [1] was > 49.8 µM (inactive), the IC50 (Orexin receptor type 2 [2]) was > 88.8 µM (inactive) and the IC50 [3] was > 49.8 µM (inactive). The IC50 [4] was 2.84 µM (active), the IC50 (CHO-K1) was > 66.3 µM (inactive) and the IC50 (Orexin receptor type 2 [5]) was > 50 µM (inactive).

In the case of Cc1nn2c(NCc3ccccn3)cc(C(C)C)nc2c1-c1ccccc1, the CC50 [6] is reported as 6.6 µM (active), the CC50 [7] is reported as 24.5 µM (active) and the CC50 [8] is reported as 15.8 µM (active). For the same compound, the IC50 [9] was > 66.6 µM (inactive), the EC50 (Streptococcus) was 23.2 µM (active) and the CC50 [10] was 9.09 µM (active). For the same compound, the IC50 (Beta-galactosidase) was > 66.6 µM (inactive), the CC50 [11] was 11.1 µM (active) and the IC50 (cells) was 1.51 µM (active). For the same compound, the EC50 [12] was 5.57 µM (active), the EC50 (Streptokinase A) was 6.95 µM (active) and the CC50 [13] was 0.46 µM (active). The CC50 [14] was 4.39 µM (active).

For COc1ccc(C2CC(c3cccs3)=NN2c2nc(C)c(C(C)=O)s2)cc1OC (stereo not drawn), the EC50 [15] was 7.9 µM (active) and 4.8 µM (active) and the EC50 [16] was 111 µM (active).

With C[C@@H](CN1CCC(n2c(=O)[nH]c3ccccc32)CC1)NC(=O)c1ccc2ncccc2c1 the IC50 (Phospholipase D1) was 0.017 µM (active) and the IC50 (Phospholipase D2) was 4.1 µM (active).
